Data set [1] is filed under the species Homo sapiens. The data set is described as follows: Selectivity ratio of Ki for displacement of [3H]-(R)-(+)-7-OH-DPAT from recombinant human D2L receptor expressed in HEK293 cell membranes to Ki for displacement of [3H]-(R)-(+)-7-OH-DPAT from recombinant human D3 receptor expressed in HEK293 cell membranes. (In a radioligand displacement assay an active substance lowers the binding of a labelled ligand.)

The nature of data set [2]: Drug level in rat liver microsomes treated with trans-N-(2-(2-(((2S,5S)-2-(6-Aminopyridin-3-yl)-5-methylmorpholino)methyl)cyclopropyl)ethyl)-1H-indole-2-carboxamide assessed as metabolite formation at 10 uM measured after 60 mins in presence of NADPH by LC-HRMS analysis. Format: ADME, Microsome. A general note: Microsomes from liver hold many membrane-bound enzymes, among them those of drug oxidation.

The species named for data set [3] is Homo sapiens. Nature of the data set: Selectivity ratio of Ki for displacement of [3H]-(R)-(+)-7-OH-DPAT from recombinant human D4.4 receptor expressed in HEK293 cell membranes to Ki for displacement of [3H]-(R)-(+)-7-OH-DPAT from recombinant human D3 receptor expressed in HEK293 cell membranes.
In data set [4] the target is D(2) dopamine receptor (Homo sapiens, UniProt P14416). Nature of the data set: Displacement of [3H]-(R)-(+)-7-OH-DPAT from recombinant human D2L receptor expressed in HEK293 cell membranes measured after 90 mins by microbeta scintillation counting analysis.
Chain of D(2) dopamine receptor (P14416 whole entry): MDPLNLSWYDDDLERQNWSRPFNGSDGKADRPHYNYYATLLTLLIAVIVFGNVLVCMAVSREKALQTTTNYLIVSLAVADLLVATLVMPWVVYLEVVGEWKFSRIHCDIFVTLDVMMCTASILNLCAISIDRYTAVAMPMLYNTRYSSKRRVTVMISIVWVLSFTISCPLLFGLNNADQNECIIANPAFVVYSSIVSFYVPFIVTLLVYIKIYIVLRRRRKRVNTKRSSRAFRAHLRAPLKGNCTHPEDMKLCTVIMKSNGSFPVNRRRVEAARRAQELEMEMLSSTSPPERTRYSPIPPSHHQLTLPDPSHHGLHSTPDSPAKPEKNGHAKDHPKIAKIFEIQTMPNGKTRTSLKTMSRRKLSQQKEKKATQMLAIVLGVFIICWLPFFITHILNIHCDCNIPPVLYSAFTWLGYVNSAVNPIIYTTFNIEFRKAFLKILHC
For data set [5], the target named is D(3) dopamine receptor (Homo sapiens, UniProt P35462). Nature of the data set: Displacement of [3H]-(R)-(+)-7-OH-DPAT from recombinant human D3 receptor expressed in HEK293 cell membranes measured after 90 mins by microbeta scintillation counting analysis.
Chain of D(3) dopamine receptor (P35462 whole entry): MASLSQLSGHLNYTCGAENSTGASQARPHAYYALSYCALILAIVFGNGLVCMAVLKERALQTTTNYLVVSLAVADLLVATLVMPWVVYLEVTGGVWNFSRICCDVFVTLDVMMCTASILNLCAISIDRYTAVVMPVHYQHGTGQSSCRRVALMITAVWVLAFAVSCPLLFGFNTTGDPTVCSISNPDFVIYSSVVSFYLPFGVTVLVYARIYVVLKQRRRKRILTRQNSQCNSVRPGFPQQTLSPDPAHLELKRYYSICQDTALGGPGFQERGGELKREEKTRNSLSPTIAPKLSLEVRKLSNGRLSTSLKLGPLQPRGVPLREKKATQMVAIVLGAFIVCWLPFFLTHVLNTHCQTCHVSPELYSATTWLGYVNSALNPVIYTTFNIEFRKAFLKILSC
Data set [6] addresses T1, D(4) dopamine receptor (Homo sapiens, UniProt P21917).
T1 sequence (P21917 whole entry): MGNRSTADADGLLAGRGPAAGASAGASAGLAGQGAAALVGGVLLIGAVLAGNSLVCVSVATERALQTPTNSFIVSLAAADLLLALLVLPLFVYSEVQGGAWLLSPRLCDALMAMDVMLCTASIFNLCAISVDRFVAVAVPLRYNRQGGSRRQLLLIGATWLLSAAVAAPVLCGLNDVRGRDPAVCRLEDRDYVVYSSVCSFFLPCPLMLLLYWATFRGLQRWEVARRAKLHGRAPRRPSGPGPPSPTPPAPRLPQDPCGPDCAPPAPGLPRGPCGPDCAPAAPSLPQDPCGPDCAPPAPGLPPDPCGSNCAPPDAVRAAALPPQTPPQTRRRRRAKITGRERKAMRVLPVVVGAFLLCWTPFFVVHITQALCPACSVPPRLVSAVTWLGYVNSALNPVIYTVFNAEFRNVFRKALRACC
The data set is described as follows: Displacement of [3H]-(R)-(+)-7-OH-DPAT from recombinant human D4.4 receptor expressed in HEK293 cell membranes measured after 90 mins by microbeta scintillation counting analysis.

Among the data in ChEMBL document CHEMBL4359839, “The Significance of Chirality in Drug Design and Synthesis of Bitopic Ligands as D3 Receptor (D3R) Selective Agonists” (J Med Chem, 2019) are Ratio Ki, Drug metabolism and Ki values, retold here.

As usually defined, the Ki is a measure of affinity in units of concentration, obtained from inhibition or displacement.

SMILES strings stand for the structures.

`Oc1ccc2c(c1)[C@H]1OCCN[C@@H]1CO2`: the Ratio Ki in data set [1] is 10.5.

With `C[C@H]1CO[C@@H](c2ccc(N)nc2)CN1`, in data set [1], the Ratio Ki was found to be 5.52. The Drug metabolism entry in data set [2] is given as “Metabolite_Detected”. For the compound `C[C@H]1CO[C@@H](c2ccc(N)nc2)CN1CC1CC1CNC(=O)c1cc2ccccc2[nH]1` (stereo in doubt; form 4), the Ratio Ki in data set [1] is 0.435.

Take `CCCN1CC(c2ccc(N)nc2)OC[C@@H]1C` (stereo partly specified): the Ratio Ki in data set [1] is 9.41; in data set [3] it was 1.58.

For `CCCN1CCO[C@@H]2c3cc(O)ccc3OC[C@H]21`, the Ratio Ki in data set [1] came to 12.1; in data set [3] it was 15.7. As for `CCCN1CCO[C@@H]2c3cc(OCCCCNC(=O)c4nc5ccccc5s4)ccc3OC[C@H]21`, in data set [1], the Ratio Ki was 4.14. For the compound `C[C@H]1CO[C@@H](c2ccc(N)nc2)CN1CC1CC1CNC(=O)c1cc2ccccc2[nH]1` (stereo in doubt; form 1), the Ratio Ki in data set [1] came out at 0.182. Same read-out and setting: to `CCCN1CCO[C@@H]2c3cc(OCCCCOc4ccc5c(c4)NC(=O)CC5)ccc3OC[C@H]21` belongs 6.35; to `CCCN1CCO[C@@H]2c3cc(OCCCCNC(=O)c4ccc5scnc5c4)ccc3OC[C@H]21`, 4.3. As to `O=C1CCc2ccc(OCCCCN3CCO[C@@H]4c5cc(O)ccc5OC[C@H]43)cc2N1`, the Ratio Ki in data set [1] was 0.554.

With `CCCN1CCO[C@@H]2c3cc(OCCCCNC(=O)c4cc5ccccc5[nH]4)ccc3OC[C@H]21`, in data set [1], the Ratio Ki came to 6.3.

Turning to `C[C@H]1CO[C@@H](c2ccc(N)nc2)CN1C/C=C/COc1ccc2c(c1)NC(=O)CC2`, the Ratio Ki in data set [1] came to 0.297.

For the compound `O=C(NCCCCNC1COc2ccc(O)cc2C1=O)c1cc2ccccc2[nH]1` (stereo in doubt; 19a), in data set [1], the Ratio Ki stood at 0.71. With `C[C@H]1CO[C@@H](c2ccc(N)nc2)CN1CC1CC1CNC(=O)c1cc2ccccc2[nH]1` (stereo in doubt; form 3), the Ratio Ki in data set [1] amounted to 0.498. As to `C[C@H]1CO[C@H](c2ccc(N)nc2)CN1C/C=C/COc1ccc2c(c1)NC(=O)CC2`, the Ratio Ki in data set [1] was 0.289.

As for `C[C@H]1CO[C@H](c2ccc(N)nc2)CN1CC1CC1CNC(=O)c1cc2ccccc2[nH]1` (stereo in doubt; form 1), the Ratio Ki in data set [1] was found to be 0.431. Turning to `C[C@H]1CO[C@H](c2ccc(N)nc2)CN1CCCCOc1ccc2c(c1)NC(=O)CC2`, the Ratio Ki in data set [1] amounted to 0.11.

Regarding `C[C@H]1CO[C@H](c2ccc(N)nc2)CN1CC1CC1CNC(=O)c1cc2ccccc2[nH]1` (stereo in doubt; form 2), in data set [1], the Ratio Ki was found to be 0.235. The same measure, in the same setting: under `CCCN1CCO[C@@H]2c3cc(OCCCCNC(=O)c4cc5cccnc5[nH]4)ccc3OC[C@H]21` stands 3.12. With `CCc1cc(Cl)c(OC)c(N2CCN(CCCCOc3ccc4c(c3)NC(=O)CC4)CC2)c1`, the Ki was 0.00186 µM in data set [4] and 0.0409 µM in data set [5]. The Ratio Ki in data set [1] was found to be 0.0455. Turning to `C[C@H]1COC(c2ccc(N)nc2)CN1CCCCOc1ccc2c(c1)NC(=O)CC2` (stereo partly specified), the values for the Ratio Ki in data set [1] and in data set [3] were 0.653 and 18.6, respectively. `O=C(NCCCCNC1COc2ccc(O)cc2C1=O)c1cc2ccccc2[nH]1` (stereo in doubt; 19b): the Ratio Ki in data set [1] was found to be 0.808.

Take `C[C@H]1CO[C@H](c2ccc(N)nc2)CN1CC1CC1CNC(=O)c1cc2ccccc2[nH]1` (mixture of isomers) [listing 1 of 2 here]: the Ki in data set [4] stood at 14.1 µM; in data set [5], 66.2 µM. In the case of `C[C@H]1COC(c2cnc(N)c(O)c2)CN1CC1CC1CCNC(=O)c1cc2ccccc2[nH]1` (stereo partly specified), the Drug metabolism entry in data set [2] was “Metabolite_Detected”. As to `CCCN1CCO[C@@H]2c3cc(OCCCCNC(=O)c4ccc5c(c4)Cc4ccccc4-5)ccc3OC[C@H]21`, in data set [1], the Ratio Ki is 8.33. Take `C[C@H]1CO[C@H](c2ccc(N)nc2)CN1CC1CC1CNC(=O)c1cc2ccccc2[nH]1` (mixture of isomers) [listing 2 of 2 here]: the Ratio Ki in data set [1] turned out to be 0.213. Consider `C[C@H]1CO[C@@H](c2ccc(N)nc2)CN1CC1CC1CNC(=O)c1cc2ccccc2[nH]1` (stereo in doubt; form 2), for which, in data set [1], the Ratio Ki came to 1.75. The same measure, in the same setting: to `C[C@H]1CO[C@H](c2ccc(N)nc2)CN1` belongs 4.67; to `CCCN1CCO[C@@H]2c3cc(OCCCCNC(=O)c4cc5ccccc5o4)ccc3OC[C@H]21`, 1.57. `C[C@H]1CO[C@@H](c2ccc(N)nc2)CN1CCCCOc1ccc2c(c1)NC(=O)CC2`: the Ratio Ki in data set [1] was determined as 1.11.

On to `CCCN(CCC)c1ccc(C2CN(CCC)[C@@H](C)CO2)cn1` (stereo partly specified), for which, in data set [6], the Ki is over 100 µM. For the same compound, the Ratio Ki in data set [1] came to 0.391.

As to `CC1=COC(c2ccc(N)nc2)CN1CC1CC1CCNC(=O)c1cc2ccccc2[nH]1` (stereo unspecified), the Drug metabolism result in data set [2] is given as “Metabolite_Detected”. For `CCCN1CCO[C@@H]2c3cc(OCCCCN4C(=O)c5ccccc5C4=O)ccc3OC[C@H]21`, the Ratio Ki in data set [1] amounted to 2.11.
